Experimental data from US20170052170A1, “NOVEL CELL LINES AND METHODS” (priority 2009, published 2017).

Columns and labels:
[1] = target: T1, human odorant receptor OR1D2 (Homo sapiens, UniProt P34982); experiment: calcium flux assay in cell line expressing human odorant receptor OR1D2; type: cell-based; settings: final concentration 0.3 mM
T1 construct: expressed in transfected cells; host or cells: 293T (HEK293T)
T1 sequence (P34982 1-312): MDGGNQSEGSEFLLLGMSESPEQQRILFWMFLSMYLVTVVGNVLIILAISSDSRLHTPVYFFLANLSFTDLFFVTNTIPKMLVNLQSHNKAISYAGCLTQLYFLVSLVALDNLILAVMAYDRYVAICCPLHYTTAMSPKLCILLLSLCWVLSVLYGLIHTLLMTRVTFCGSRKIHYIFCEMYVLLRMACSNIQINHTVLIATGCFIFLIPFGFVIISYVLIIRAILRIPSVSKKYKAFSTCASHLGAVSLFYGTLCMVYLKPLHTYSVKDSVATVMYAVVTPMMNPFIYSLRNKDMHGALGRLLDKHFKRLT
Method: (§1) FIG. 29B depicts representative traces of the functional cell-based response of a cell line described herein expressing human odorant receptor OR1D2 to Bourgeonal (to a final concentration of 0.3 mM) compared to DMSO vehicle background signal as control. Test (black) and control (gray) traces are overlaid. […] The cell-based assay was designed to report calcium flux using a fluorescent calcium signaling dye. Fluorescent assay response is plotted along the Y-axis and time is indicated along the X-axis. Arrows indicate the timepoint at which Bourgeonal or DMSO was added.

[2] = target: T1, human odorant receptor OR1D2; experiment: Calcium mobilization (Fluo-4) assay, HEK293T cells expressing OR1D2 and human Gα15; type: cell-based; settings: final concentration 0.3 mM, vs DMSO vehicle, FIG. 29B
Method: (§2) Populations of cells were tested using functional criteria. Calcium mobilization dye Fluo-4 (Invitrogen) was used according to manufacturer's instructions. HEK293T cell lines stably expressing h-OR were maintained under standard cell culture conditions in DMEM medium supplemented with 10% fetal bovine serum and glutamine. On the day before assay, the cells were harvested from stock plates and plated into black clear-bottom 384 well assay plates. The assay plates were maintained in a 37° C. cell culture incubator under 5% CO2 for 22-48 hours. […] The assay plates were then loaded on a fluorescent plate reader (Hamamatsu FDSS) and agonist (4.5 mM Helional for OR3A1 and 0.3 mM Bourgeonal for OR1D2-FIGS. 29A, 29B) dissolved in the above buffer (130 mM NaCl, 5 mM KCl, 2 mM CaCl2, 1.2 mM MgCl2, 10 mM HEPES, 10 mM glucose, pH 7.0) was added. Cells were tested at multiple different densities in 384-well plates and responses were analyzed. […]
(§3) In order to identify and measure the ligand-induced responsiveness of odorant receptor-expressing HEK293T cells, receptor activation are monitored by measuring receptor-triggered alterations in intracellular calcium levels. […] Software (Hamamatsu FDSS) analysis of images reports the change in relative fluorescence for each well in the cell plate.

[3] = target: T2, human odorant receptor OR3A1 (Homo sapiens, UniProt P47881, R125Q); experiment: calcium flux assay in cell line expressing human odorant receptor OR3A1; type: cell-based; settings: final concentration 4.5 mM
T2 construct: expressed in transfected cells; host or cells: 293T (HEK293T)
T2 sequence (P47881 1-315 R125Q): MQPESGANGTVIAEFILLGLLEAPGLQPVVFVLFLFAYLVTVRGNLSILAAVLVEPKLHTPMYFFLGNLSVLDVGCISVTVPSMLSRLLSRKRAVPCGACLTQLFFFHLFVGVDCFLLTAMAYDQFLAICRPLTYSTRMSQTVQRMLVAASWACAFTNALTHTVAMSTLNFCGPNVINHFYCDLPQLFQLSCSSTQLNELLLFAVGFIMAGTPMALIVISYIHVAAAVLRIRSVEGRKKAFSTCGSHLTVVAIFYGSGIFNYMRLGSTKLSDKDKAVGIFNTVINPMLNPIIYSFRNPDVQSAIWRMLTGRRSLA
Method: as §1, with “29 (A-B) depicts representative traces of the functional cell-based response of cells expressing a human odorant receptor to Helional and to Bourgeonal compared to background. FIG. 29A” for “29B”, “OR3A1” for “OR1D2”, “Helional” for “Bourgeonal”, “4.5” for “0.3”

[4] = target: T2, human odorant receptor OR3A1; experiment: Calcium mobilization (Fluo-4) assay, HEK293T cells expressing OR3A1 and human Gα15; type: cell-based; settings: final concentration 4.5 mM, vs DMSO vehicle, FIG. 29A
Method: as §2, §3

[5] = target: T3, sweet taste receptor (T1R2/T1R3) (Homo sapiens, UniProt Q7RTX0+Q8TE23, C757R/I191V/I486V/R317G); experiment: Sweet cell-based calcium flux assay, HEK293T cells expressing T1R2, T1R3 and mouse Gα15; settings: FIG. 20; high density, coated plates, low glucose media, serum deprivation
T3 construct: expressed in transfected cells; host or cells: HEK293T (ATCC CRL-11268)
T3 sequence (Q8TE23 20-839 I191V/R317G/I486V): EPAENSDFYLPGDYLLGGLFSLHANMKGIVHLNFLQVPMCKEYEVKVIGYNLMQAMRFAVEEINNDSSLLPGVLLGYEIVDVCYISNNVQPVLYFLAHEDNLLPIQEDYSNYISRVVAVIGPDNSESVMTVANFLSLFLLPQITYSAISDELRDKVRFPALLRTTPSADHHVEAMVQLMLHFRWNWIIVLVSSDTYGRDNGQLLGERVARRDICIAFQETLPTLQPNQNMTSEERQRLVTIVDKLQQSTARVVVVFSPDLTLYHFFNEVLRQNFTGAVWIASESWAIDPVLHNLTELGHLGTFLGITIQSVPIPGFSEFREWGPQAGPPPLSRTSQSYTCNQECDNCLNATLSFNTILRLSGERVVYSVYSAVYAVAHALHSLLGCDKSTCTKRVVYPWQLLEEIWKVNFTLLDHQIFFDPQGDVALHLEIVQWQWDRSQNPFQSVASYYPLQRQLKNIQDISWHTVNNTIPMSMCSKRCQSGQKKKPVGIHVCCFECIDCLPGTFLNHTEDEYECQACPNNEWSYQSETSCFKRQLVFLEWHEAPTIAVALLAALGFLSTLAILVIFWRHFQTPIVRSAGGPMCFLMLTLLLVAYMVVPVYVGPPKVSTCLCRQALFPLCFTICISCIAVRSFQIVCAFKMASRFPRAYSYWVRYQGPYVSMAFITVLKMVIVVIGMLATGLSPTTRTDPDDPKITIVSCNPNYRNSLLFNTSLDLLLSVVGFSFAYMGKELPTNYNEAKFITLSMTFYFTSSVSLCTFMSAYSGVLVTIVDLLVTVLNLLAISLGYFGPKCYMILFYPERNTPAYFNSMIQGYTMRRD
T3 sequence (Q7RTX0 21-852 C757R): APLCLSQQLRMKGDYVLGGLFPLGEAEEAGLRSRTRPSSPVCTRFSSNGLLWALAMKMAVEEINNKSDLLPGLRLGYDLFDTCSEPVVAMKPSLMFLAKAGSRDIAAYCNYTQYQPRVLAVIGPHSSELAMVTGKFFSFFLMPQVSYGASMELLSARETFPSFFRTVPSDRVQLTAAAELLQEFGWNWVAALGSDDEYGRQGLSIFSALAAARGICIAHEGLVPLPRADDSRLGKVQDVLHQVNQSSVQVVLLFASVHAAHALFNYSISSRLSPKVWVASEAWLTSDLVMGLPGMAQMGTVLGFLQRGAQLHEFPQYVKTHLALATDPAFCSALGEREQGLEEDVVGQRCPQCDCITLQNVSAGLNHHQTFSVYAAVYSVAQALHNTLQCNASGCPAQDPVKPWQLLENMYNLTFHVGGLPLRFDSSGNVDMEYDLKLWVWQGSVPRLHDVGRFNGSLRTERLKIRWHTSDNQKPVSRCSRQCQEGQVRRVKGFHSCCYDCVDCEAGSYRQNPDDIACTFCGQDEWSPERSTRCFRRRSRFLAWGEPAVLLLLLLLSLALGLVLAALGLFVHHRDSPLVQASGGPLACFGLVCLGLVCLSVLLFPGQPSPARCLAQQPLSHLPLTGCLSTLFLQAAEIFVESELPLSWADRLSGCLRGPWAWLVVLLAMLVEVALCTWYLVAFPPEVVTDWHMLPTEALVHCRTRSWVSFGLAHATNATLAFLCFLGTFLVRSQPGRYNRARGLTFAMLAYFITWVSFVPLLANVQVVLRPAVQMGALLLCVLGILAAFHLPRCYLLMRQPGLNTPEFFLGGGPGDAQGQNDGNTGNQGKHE
Description: Plates are then loaded on a high throughput plate reader (Hamamatsu FDSS). […] Calcium flux is detected for 90 seconds.

[6] = target: T4, umami taste receptor (T1R1 and T1R3 subunits, Gα15) (Homo sapiens, UniProt Q7RTX0+Q7RTX1, C757R); experiment: umami taste receptor-expressing cell-based assay; settings: FIGS. 9-12
T4 construct: expressed in transfected cells; host or cells: HEK293T (ATCC CRL-11268)
T4 sequence (Q7RTX1 21-841): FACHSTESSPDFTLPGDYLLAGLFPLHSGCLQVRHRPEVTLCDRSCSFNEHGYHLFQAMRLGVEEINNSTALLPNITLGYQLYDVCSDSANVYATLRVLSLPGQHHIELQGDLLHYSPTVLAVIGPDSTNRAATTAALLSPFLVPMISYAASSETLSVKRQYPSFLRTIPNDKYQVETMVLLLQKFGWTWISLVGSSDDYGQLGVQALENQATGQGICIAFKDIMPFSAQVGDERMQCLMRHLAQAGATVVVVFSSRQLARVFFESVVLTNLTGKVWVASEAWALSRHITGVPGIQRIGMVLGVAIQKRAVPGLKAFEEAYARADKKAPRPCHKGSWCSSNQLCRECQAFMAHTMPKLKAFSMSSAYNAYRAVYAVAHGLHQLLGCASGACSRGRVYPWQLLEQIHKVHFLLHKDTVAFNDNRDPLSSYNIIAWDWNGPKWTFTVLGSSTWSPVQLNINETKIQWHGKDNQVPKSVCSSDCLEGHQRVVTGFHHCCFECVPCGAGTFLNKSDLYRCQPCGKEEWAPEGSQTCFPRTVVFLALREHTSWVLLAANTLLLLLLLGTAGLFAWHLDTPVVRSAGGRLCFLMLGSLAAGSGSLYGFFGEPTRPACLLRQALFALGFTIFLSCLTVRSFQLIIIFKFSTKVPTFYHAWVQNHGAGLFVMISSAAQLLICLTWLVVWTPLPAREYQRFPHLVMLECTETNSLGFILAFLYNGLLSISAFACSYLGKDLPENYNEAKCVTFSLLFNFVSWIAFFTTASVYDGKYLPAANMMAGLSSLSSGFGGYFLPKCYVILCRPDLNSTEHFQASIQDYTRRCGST
T4 sequence (Q7RTX0 21-852 C757R): T3 sequence (Q7RTX0 21-852 C757R)
Description: To identify a taste receptor modulator (e.g., umami taste receptor modulator or sweet taste receptor modulator), one exposes a cell or cell line of the invention to a test compound under conditions in which the taste receptor (e.g., umami taste receptor or sweet taste receptor) would be expected to be functional and then detects a statistically significant change (e.g., p<0.05) in taste receptor activity (e.g., umami taste receptor activity or sweet taste receptor activity) compared to a suitable control, e.g., cells that are not exposed to the test compound. Positive and/or negative controls using known agonists or antagonists and/or cells expressing different combinations of taste receptor subunits (e.g., umami taste receptor subunits or sweet taste receptor subunits) (and optionally a G protein) may also be used. In some embodiments, the taste receptor activity (e.g., umami taste receptor activity or sweet taste receptor activity) to be detected and/or measured is calcium release from the endoplasmic reticulum as a result of the down stream signaling events following taste receptor activation (e.g., umami taste receptor activation or sweet taste receptor activation). One of ordinary skill in the art would understand that various assay parameters may be optimized, e.g., signal to noise ratio.

For `CC(C)(C)c1ccc(CCC=O)cc1` [Bourgeonal], the “functional cell-based (calcium flux) response compared to DMSO vehicle background” value [1] was “response to Bourgeonal over background” and the “functional cell-based calcium flux response” value [2] was “response to Bourgeonal over background”.

In the case of `CC(C=O)Cc1ccc2c(c1)OCO2` (stereo not drawn) [Helional], the “functional cell-based (calcium flux) response compared to DMSO vehicle background” value [3] is reported as “response to Helional over background” and the “functional cell-based calcium flux response” value [4] is reported as “response to Helional over background”.

With `N[C@@H](CCC(=O)O)C(=O)[O-].[Na+]` [MSG, monosodium glutamate] the “response of cells grown in the "Final" growth conditions” value [5] was “not” and the “response of umami taste receptor cells and cell lines to known classes of umami compounds” value [6] was “respond”.
